# Patent US10160755B2 (Plexxikon Inc., priority 2015, dated 2018)
# Biological target: T1, FLT3-D835Y (Homo sapiens, UniProt P36888, D835Y)
# T1 construct: purchased Invitrogen PV3967
# T1 sequence (P36888 27-993 D835Y): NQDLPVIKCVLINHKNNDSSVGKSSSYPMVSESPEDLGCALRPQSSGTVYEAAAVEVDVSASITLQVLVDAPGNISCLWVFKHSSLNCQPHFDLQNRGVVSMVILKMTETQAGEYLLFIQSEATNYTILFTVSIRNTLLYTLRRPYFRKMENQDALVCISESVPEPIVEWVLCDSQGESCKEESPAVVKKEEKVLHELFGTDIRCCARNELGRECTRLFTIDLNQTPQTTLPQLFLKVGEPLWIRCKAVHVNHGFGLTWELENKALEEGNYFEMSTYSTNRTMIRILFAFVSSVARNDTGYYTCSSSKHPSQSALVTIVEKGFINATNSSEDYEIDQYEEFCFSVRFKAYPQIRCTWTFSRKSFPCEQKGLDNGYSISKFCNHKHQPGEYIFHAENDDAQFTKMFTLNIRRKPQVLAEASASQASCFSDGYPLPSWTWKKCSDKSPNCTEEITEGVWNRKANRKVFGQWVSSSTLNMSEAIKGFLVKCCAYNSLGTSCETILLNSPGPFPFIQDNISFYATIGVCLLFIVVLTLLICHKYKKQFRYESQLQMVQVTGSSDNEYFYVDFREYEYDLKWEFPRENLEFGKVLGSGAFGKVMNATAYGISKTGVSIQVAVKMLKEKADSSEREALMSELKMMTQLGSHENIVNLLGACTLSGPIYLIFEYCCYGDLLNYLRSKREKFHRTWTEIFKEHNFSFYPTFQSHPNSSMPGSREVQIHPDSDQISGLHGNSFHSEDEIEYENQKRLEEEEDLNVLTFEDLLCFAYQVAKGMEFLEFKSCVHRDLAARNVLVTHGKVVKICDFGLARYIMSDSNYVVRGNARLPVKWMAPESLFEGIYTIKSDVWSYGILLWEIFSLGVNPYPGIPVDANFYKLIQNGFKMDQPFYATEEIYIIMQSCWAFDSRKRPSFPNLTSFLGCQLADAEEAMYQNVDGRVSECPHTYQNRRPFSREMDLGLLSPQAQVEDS
# Assay: FLT3-D835Y biochemical kinase assay (AlphaScreen)
# Outline: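 Recombinant kinase, biotin-GG(EEEEY)10EE 30 nM final, ATP 10 μM (D835Y) / 100 μM (ITD). Stop/detect: SA donor beads 20 min RT, then PY20 acceptor beads 60 min RT. AlphaScreen 580 nm signal; IC50.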
row,Compound,IC50 [µM]
1,"N#Cc1cccc(NC(=O)c2cnc3[nH]cc(-c4ccc5ncn(C6CCCNC6)c5c4)c3c2)c1 (centres unmarked) [P-219, N-(3-cyanophenyl)-3-(1-(piperidin-3-yl)-1H-benzo[d]imidazol-6-yl)-1H-pyrrolo[2,3-b]pyridine-5-carboxamide]",0.0001 to 1
2,"COc1cnc2[nH]cc(-c3ccc4ncn(-c5cccc(F)c5)c4c3)c2c1 [P-128, 1-(3-fluorophenyl)-6-(5-methoxy-1H-pyrrolo[2,3-b]pyridin-3-yl)benzimidazole]",0.0001 to 1
3,"CC(C)(C)n1cnc2ccc(-c3c[nH]c4ncc(-c5cccc(S(=O)(=O)N6CCCC6)c5)nc34)cc21 [P-229, 7-(3-tert-butylbenzimidazol-5-yl)-2-(3-pyrrolidin-1-ylsulfonylphenyl)-5H-pyrrolo[2,3-b]pyrazine]",0.0001 to 1
4,"O=C(Nc1cccc(F)c1)c1cnc2[nH]cc(-c3ccc4ncn(C5CCCNC5)c4c3)c2c1 (centres unmarked) [P-178, N-(3-fluorophenyl)-3-[3-(3-piperidyl)benzimidazol-5-yl]-1H-pyrrolo[2,3-b]pyridine-5-carboxamide]",0.0001 to 1
5,"CC(C)(C)n1cnc2ccc(-c3c[nH]c4ncc(C(=O)Nc5cccc(C#N)c5)cc34)cc21 [P-218, 3-(3-tert-butylbenzimidazol-5-yl)-N-(3-cyanophenyl)-1H-pyrrolo[2,3-b]pyridine-5-carboxamide]",0.0001 to 1
6,"c1cc(N2CCOCC2)ccc1-c1cnc2[nH]cc(-c3ccc4ncn(C5CCCNC5)c4c3)c2n1 (centres unmarked) [P-101, 4-[4-[7-[3-(3-piperidyl)benzimidazol-5-yl]-5H-pyrrolo[2,3-b]pyrazin-2-yl]phenyl]morpholine]",0.0001 to 1
7,"COc1cc(-c2cnc3[nH]cc(-c4ccc5ncn(C(C)(C)C)c5c4)c3c2)ccn1 [P-106, 1-tert-butyl-6-[5-(2-methoxy-4-pyridyl)-1H-pyrrolo[2,3-b]pyridin-3-yl]benzimidazole]",0.0001 to 1
8,"COc1cnc2[nH]cc(-c3ccc4ncn(-c5ccc(F)c(C)c5)c4c3)c2c1 [P-129, 1-(4-fluoro-3-methyl-phenyl)-6-(5-methoxy-1H-pyrrolo[2,3-b]pyridin-3-yl)benzimidazole]",0.0001 to 1
9,"COc1cc(-c2cnc3[nH]cc(-c4ccc5ncn(C(C)C)c5c4)c3n2)ccn1 [P-113, 7-(3-isopropylbenzimidazol-5-yl)-2-(2-methoxy-4-pyridyl)-5H-pyrrolo[2,3-b]pyrazine]",0.0001 to 1
10,"N#Cc1cccc(C(=O)Nc2cnc3[nH]cc(-c4ccc5ncn(C6CCCNC6)c5c4)c3c2)c1 (centres unmarked) [P-236, 3-cyano-N-[3-[3-(3-piperidyl)benzimidazol-5-yl]-1H-pyrrolo[2,3-b]pyridin-5-yl]benzamide]",0.0001 to 1
11,"CC(C)(C)n1cnc2ccc(-c3c[nH]c4ncc(NC(=O)c5cccc(C#N)c5)cc34)cc21 [P-235, N-[3-(3-tert-butylbenzimidazol-5-yl)-1H-pyrrolo[2,3-b]pyridin-5-yl]-3-cyano-benzamide]",0.0001 to 1
12,"COc1cc(-c2cnc3[nH]cc(-c4ccc5ncn([C@@H]6CCCNC6)c5c4)c3n2)ccn1 [P-254, 2-(2-methoxy-4-pyridyl)-7-[3-[(3R)-3-piperidyl]benzimidazol-5-yl]-5H-pyrrolo[2,3-b]pyrazine]",0.0001 to 1
13,"CC(C)(C)n1cnc2ccc(-c3c[nH]c4ncc(-c5cccc(NS(C)(=O)=O)c5)nc34)cc21 [P-097, N-[3-[7-(3-tert-butylbenzimidazol-5-yl)-5H-pyrrolo[2,3-b]pyrazin-2-yl]phenyl]methanesulfonamide]",0.0001 to 1
14,"N#Cc1cccc(-c2cnc3[nH]cc(-c4ccc5ncn(-c6ccc(F)c(Cl)c6)c5c4)c3c2)c1 [P-210, 3-[3-[3-(3-chloro-4-fluoro-phenyl)benzimidazol-5-yl]-1H-pyrrolo[2,3-b]pyridin-5-yl]benzonitrile]",0.0001 to 1
15,"CC(C)(C)n1cnc2ccc(-c3c[nH]c4ncc(-c5cccc(N6CCCS6(=O)=O)c5)nc34)cc21 [P-231, 2-[3-[7-(3-tert-butylbenzimidazol-5-yl)-5H-pyrrolo[2,3-b]pyrazin-2-yl]phenyl]-1,2-thiazolidine 1,1-dioxide]",0.0001 to 1
16,"CC(C)(C)n1cnc2ccc(-c3c[nH]c4ncc(-c5ccc(F)c(C#N)c5)nc34)cc21 [P-230, 5-[7-(3-tert-butylbenzimidazol-5-yl)-5H-pyrrolo[2,3-b]pyrazin-2-yl]-2-fluoro-benzonitrile]",0.0001 to 1
17,"CN(c1cccc(-c2cnc3[nH]cc(-c4ccc5ncn(C)c5c4)c3n2)c1)S(C)(=O)=O [P-150, N-methyl-N-[3-[7-(3-methylbenzimidazol-5-yl)-5H-pyrrolo[2,3-b]pyrazin-2-yl]phenyl]methanesulfonamide]",0.0001 to 1
18,"c1cc(-c2cnc3[nH]cc(-c4ccc5ncn(C6CCCNC6)c5c4)c3c2)cc(N2CCOCC2)n1 (centres unmarked) [P-223, 4-[4-[3-[3-(3-piperidyl)benzimidazol-5-yl]-1H-pyrrolo[2,3-b]pyridin-5-yl]-2-pyridyl]morpholine]",0.0001 to 1
19,"COc1cc(C(=O)Nc2cnc3[nH]cc(-c4ccc5ncn(C6CCCNC6)c5c4)c3c2)ccn1 (centres unmarked) [P-247, 2-methoxy-N-[3-[3-(3-piperidyl)benzimidazol-5-yl]-1H-pyrrolo[2,3-b]pyridin-5-yl]pyridine-4-carboxamide]",0.0001 to 1
20,"COc1cnc2[nH]cc(-c3cnc4ncn(Cc5cc(C)on5)c4c3)c2c1 [P-144, 3-[[6-(5-methoxy-1H-pyrrolo[2,3-b]pyridin-3-yl)imidazo[4,5-b]pyridin-1-yl]methyl]-5-methyl-isoxazole]",0.0001 to 1
21,"O=S(=O)(c1cccc(-c2cnc3[nH]cc(-c4ccc5ncn(C6CCCNC6)c5c4)c3c2)c1)N1CCCC1 (centres unmarked) [P-222, 1-(3-piperidyl)-6-[5-(3-pyrrolidin-1-ylsulfonylphenyl)-1H-pyrrolo[2,3-b]pyridin-3-yl]benzimidazole]",0.0001 to 1
22,"FC(F)(F)Oc1cccc(C#Cc2cnc3[nH]cc(-c4ccc5ncn(C6CCCNC6)c5c4)c3n2)c1 (centres unmarked) [P-246, 7-[3-(3-piperidyl)benzimidazol-5-yl]-2-[2-[3-(trifluoromethoxy)phenyl]ethynyl]-5H-pyrrolo[2,3-b]pyrazine]",0.0001 to 1

# Further lines, results first:
row,IC50 [µM],Compound
1,0.0001 to 1,"C#Cc1cnc2[nH]cc(-c3ccc4ncn(C(C)(C)C)c4c3)c2n1 [P-259, 7-(3-tert-butylbenzimidazol-5-yl)-2-ethynyl-5H-pyrrolo[2,3-b]pyrazine]"
2,0.0001 to 1,"c1cc(-c2cnc3[nH]cc(-c4ccc5ncn(C6CCCNC6)c5c4)c3n2)cc(N2CCOCC2)n1 (centres unmarked) [P-262, 4-[4-[7-[3-(3-piperidyl)benzimidazol-5-yl]-5H-pyrrolo[2,3-b]pyrazin-2-yl]-2-pyridyl]morpholine]"
3,0.0001 to 1,"CC(C)(C)n1cnc2ccc(-c3c[nH]c4ncc(-c5cnn(CC(F)(F)F)c5)nc34)cc21 [P-256, 7-(3-tert-butylbenzimidazol-5-yl)-2-[1-(2,2,2-trifluoroethyl)pyrazol-4-yl]-5H-pyrrolo[2,3-b]pyrazine]"
4,0.0001 to 1,"COc1cc(-c2cnc3[nH]cc(-c4ccc5ncn(C6CCCN(C)C6)c5c4)c3n2)ccn1 (centres unmarked) [P-271, 2-(2-methoxy-4-pyridyl)-7-[3-(1-methyl-3-piperidyl)benzimidazol-5-yl]-5H-pyrrolo[2,3-b]pyrazine]"
5,0.0001 to 1,"CC(C)(C)n1cnc2ccc(-c3c[nH]c4ncc(-c5cnc(N6CCOCC6)nc5)cc34)cc21 [P-266, 4-[5-[3-(3-tert-butylbenzimidazol-5-yl)-1H-pyrrolo[2,3-b]pyridin-5-yl]pyrimidin-2-yl]morpholine]"
6,0.0001 to 1,"C#Cc1cnc2[nH]cc(-c3ccc4ncn(C5CCCNC5)c4c3)c2n1 (centres unmarked) [P-270, 2-ethynyl-7-[3-(3-piperidyl)benzimidazol-5-yl]-5H-pyrrolo[2,3-b]pyrazine]"
7,0.0001 to 1,"COc1cc(-c2cnc3[nH]cc(-c4ccc5ncn(C6CCCN(C(C)=O)C6)c5c4)c3n2)ccn1 (centres unmarked) [P-260, 1-[3-[6-[2-(2-methoxy-4-pyridyl)-5H-pyrrolo[2,3-b]pyrazin-7-yl]benzimidazol-1-yl]-1-piperidyl]ethanone]"
8,0.0001 to 1,"COc1ncc(-c2cnc3[nH]cc(-c4ccc5ncn(C(C)(C)C)c5c4)c3n2)cn1 [P-263, 7-(3-tert-butylbenzimidazol-5-yl)-2-(2-methoxypyrimidin-5-yl)-5H-pyrrolo[2,3-b]pyrazine]"
9,0.0001 to 1,"COc1ncc(-c2cnc3[nH]cc(-c4ccc5ncn(C6CCCNC6)c5c4)c3n2)cn1 (centres unmarked) [P-264, 2-(2-methoxypyrimidin-5-yl)-7-[3-(3-piperidyl)benzimidazol-5-yl]-5H-pyrrolo[2,3-b]pyrazine]"
10,0.0001 to 1,"CC(C)(C)n1cnc2ccc(-c3c[nH]c4ncc(-c5cnn(C(F)F)c5)nc34)cc21 [P-255, 7-(3-tert-butylbenzimidazol-5-yl)-2-[1-(difluoromethyl)pyrazol-4-yl]-5H-pyrrolo[2,3-b]pyrazine]"
